According to US9187472B2 (AbbVie Inc., priority 2012, dated 2015):

What was measured:
[1] = target: NAMPT (human, recombinant, C-terminally His-tagged) (Homo sapiens, UniProt P43490); experiment: Time-Resolved Fluorescence Resonance Energy Transfer (TR-FRET) Binding Assay of NAMPT; conditions: without substrates; 6.8 nM NAMPT, 200 nM probe, 3 hours equilibration
Summary of the method: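 A TR-FRET probe-displacement assay used 6.8 nM His-tagged recombinant human NAMPT, 200 nM Oregon Green 488-labelled nicotinamide-competitive probe and 1 nM Tb-anti-His antibody. Buffer was HEPES pH 7.5 with NaCl, MgCl2, DTT and glycerol, plus 2% DMSO, equilibrated 3 h at room temperature. Em520/Em495 ratios, normalized to controls, gave IC50 by four-parameter logistic fit.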

NAMPT = NAMPT (Homo sapiens, UniProt P43490); experiment: TR-FRET Binding Assay of NAMPT with PRPP; conditions: with 200 μM PRPP and 2.5 mM ATP; 2 nM NAMPT, 2 nM probe, 16 hours equilibration
Chain of NAMPT (P43490 whole entry): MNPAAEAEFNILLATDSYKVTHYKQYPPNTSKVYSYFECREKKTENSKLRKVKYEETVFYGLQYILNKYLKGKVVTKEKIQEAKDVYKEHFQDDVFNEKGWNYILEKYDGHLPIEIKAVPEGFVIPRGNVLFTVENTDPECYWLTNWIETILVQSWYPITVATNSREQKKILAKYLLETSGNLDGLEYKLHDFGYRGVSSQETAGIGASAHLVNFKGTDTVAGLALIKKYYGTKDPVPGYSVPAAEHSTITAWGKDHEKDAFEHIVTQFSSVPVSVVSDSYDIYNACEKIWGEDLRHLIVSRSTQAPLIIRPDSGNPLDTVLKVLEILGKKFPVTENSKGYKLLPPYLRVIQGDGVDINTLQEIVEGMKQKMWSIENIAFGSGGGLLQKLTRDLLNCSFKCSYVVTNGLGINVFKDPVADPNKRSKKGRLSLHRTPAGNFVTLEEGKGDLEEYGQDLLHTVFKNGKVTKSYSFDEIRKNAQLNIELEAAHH
Summary of the method: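 Human NAMPT (2 nM) with 2 nM probe and 1 nM Tb-anti-His antibody, plus 200 μM PRPP and 2.5 mM ATP, 2% DMSO. TR-FRET read after 16 h equilibration, permitting possible enzymatic modification of test compounds; data processing as for the substrate-free format.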

PC3 cells = experiment: NAMPT Cell Proliferation Assay; assay type: cell-based; conditions: Homo sapiens, PC-3, 120 h, 5 days incubation, cell viability by Cell Titer Glo
Summary of the method: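 IC50 values derive from sigmoidal dose-response fits of percent inhibition of PC3 viability, measured by luminescence after 5 days of compound treatment. Cells (500/well, RPMI containing 10% heat-inactivated FBS) are allowed to attach overnight, and compounds are tested at 10-fold dilutions between 10 μM and 1×10^−5 μM.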

Chain of NAMPT (human, recombinant, C-terminally His-tagged) (P43490 whole entry): as above

Row | SMILES | IC50 [1] | IC50 (NAMPT) | IC50 (PC3 cells)
1 | CC(C)Cn1cc(-c2sc(C(=O)NCc3ccn4ccnc4c3)cc2Cl)cn1 [Example 578, 4-chloro-N-(imidazo[1,2-a]pyridin-7-ylmethyl)-5-[1-(2-methylpropyl)-1H-pyrazol-4-yl]thiophene-2-carboxamide] | 682 nM | 0.775 nM | 4600 nM
2 | CC1CC1C(=O)N1CCC(c2ccc(C(=O)NCc3ccn4ccnc4c3)cc2)C1 (stereo not drawn) [Example 580, N-(imidazo[1,2-a]pyridin-7-ylmethyl)-4-{1-[(2-methylcyclopropyl)carbonyl]pyrrolidin-3-yl}benzamide] | 1470 nM | 0.798 nM | 212 nM
3 | O=C(NCc1ccn2ccnc2c1)c1ccc(C2CCN(C(=O)CC3CCCC3)C2)cc1 (stereo not drawn) [Example 581, 4-[1-(cyclopentylacetyl)pyrrolidin-3-yl]-N-(imidazo[1,2-a]pyridin-7-ylmethyl)benzamide] | 945 nM | 1.09 nM | 81.2 nM
4 | CCC(C)CC(=O)N1CCC(c2ccc(C(=O)NCc3ccn4ccnc4c3)cc2)C1 (stereo not drawn) [Example 582, N-(imidazo[1,2-a]pyridin-7-ylmethyl)-4-[1-(3-methylpentanoyl)pyrrolidin-3-yl]benzamide] | 711 nM | 0.911 nM | 33.2 nM
5 | O=C(NCc1ccn2ccnc2c1)c1ccc(C2CCN(C(=O)C3CCCC3)C2)cc1 (stereo not drawn) [Example 583, 4-[1-(cyclopentylcarbonyl)pyrrolidin-3-yl]-N-(imidazo[1,2-a]pyridin-7-ylmethyl)benzamide] | 1120 nM | 0.799 nM | 189 nM
6 | CC1(C(=O)N2CCC(c3ccc(C(=O)NCc4ccn5ccnc5c4)cc3)C2)CC1 (stereo not drawn) [Example 584, N-(imidazo[1,2-a]pyridin-7-ylmethyl)-4-{1-[(1-methylcyclopropyl)carbonyl]pyrrolidin-3-yl}benzamide] | 811 nM | 0.756 nM | 58.7 nM
7 | O=C(NCc1ccn2ccnc2c1)c1ccc(C2CCN(C(=O)c3cncs3)C2)cc1 (stereo not drawn) [Example 586, N-(imidazo[1,2-a]pyridin-7-ylmethyl)-4-[1-(1,3-thiazol-5-ylcarbonyl)pyrrolidin-3-yl]benzamide] | 842 nM | 1.09 nM | 301 nM
8 | O=C(NCc1ccn2ccnc2c1)c1ccc(C2CCN(C(=O)c3cscn3)C2)cc1 (stereo not drawn) [Example 588, N-(imidazo[1,2-a]pyridin-7-ylmethyl)-4-[1-(1,3-thiazol-4-ylcarbonyl)pyrrolidin-3-yl]benzamide] | 684 nM | 0.623 nM | 181 nM
9 | Cn1ccc(C(=O)N2CCC(c3ccc(C(=O)NCc4ccn5ccnc5c4)cc3)C2)n1 (stereo not drawn) [Example 593, N-(imidazo[1,2-a]pyridin-7-ylmethyl)-4-{1-[(1-methyl-1H-pyrazol-3-yl)carbonyl]pyrrolidin-3-yl}benzamide] | 767 nM | 0.544 nM | 677 nM
10 | O=C(NCc1ccn2ccnc2c1)c1ccc(C2CCN(C(=O)c3ccc(Cl)cc3)C2)cc1 (stereo not drawn) [Example 596, 4-[1-(4-chlorobenzoyl)pyrrolidin-3-yl]-N-(imidazo[1,2-a]pyridin-7-ylmethyl)benzamide] | 691 nM | 0.909 nM | 257 nM
11 | CC(C)CC(=O)N1CCC(c2ccc(C(=O)NCc3ccn4ccnc4c3)cc2)C1 (stereo not drawn) [Example 601, N-(imidazo[1,2-a]pyridin-7-ylmethyl)-4-[1-(3-methylbutanoyl)pyrrolidin-3-yl]benzamide] | 712 nM | 0.682 nM | 56.7 nM
12 | CC(C)(C)CC(=O)N1CCC(c2ccc(C(=O)NCc3ccn4ccnc4c3)cc2)C1 (stereo not drawn) [Example 602, 4-[1-(3,3-dimethylbutanoyl)pyrrolidin-3-yl]-N-(imidazo[1,2-a]pyridin-7-ylmethyl)benzamide] | 786 nM | 0.887 nM | 48.6 nM
13 | N#Cc1cccc(C(=O)N2CCC(c3ccc(C(=O)NCc4ccn5ccnc5c4)cc3)C2)c1 (stereo not drawn) [Example 603, 4-[1-(3-cyanobenzoyl)pyrrolidin-3-yl]-N-(imidazo[1,2-a]pyridin-7-ylmethyl)benzamide] | 1030 nM | 1.01 nM | 695 nM

The remaining molecules from weak to strong by IC50 [1], led by results:

Row | IC50 [1] | IC50 (NAMPT) | IC50 (PC3 cells) | SMILES
14 | 666 nM | 0.734 nM | 189 nM | O=C(NCc1ccn2ccnc2c1)c1ccc(C2CCN(C(=O)c3ccco3)C2)cc1 (stereo not drawn) [Example 590, 4-[1-(furan-2-ylcarbonyl)pyrrolidin-3-yl]-N-(imidazo[1,2-a]pyridin-7-ylmethyl)benzamide]
15 | 641 nM | 0.648 nM | 34.6 nM | CC(C)(C)C(=O)N1CCC(c2ccc(C(=O)NCc3ccn4ccnc4c3)cc2)C1 (stereo not drawn) [Example 585, 4-[1-(2,2-dimethylpropanoyl)pyrrolidin-3-yl]-N-(imidazo[1,2-a]pyridin-7-ylmethyl)benzamide]
16 | 527 nM | 0.786 nM | 52.3 nM | O=C(NCc1ccn2ccnc2c1)c1ccc(C2CCN(C(=O)c3cc(F)cc(F)c3)C2)cc1 (stereo not drawn) [Example 599, 4-[1-(3,5-difluorobenzoyl)pyrrolidin-3-yl]-N-(imidazo[1,2-a]pyridin-7-ylmethyl)benzamide]
17 | 510 nM | 0.169 nM | 110 nM | Cc1ccc(C(=O)N2CCC(c3ccc(C(=O)NCc4ccn5ccnc5c4)cc3)C2)cc1 (stereo not drawn) [Example 600, N-(imidazo[1,2-a]pyridin-7-ylmethyl)-4-[1-(4-methylbenzoyl)pyrrolidin-3-yl]benzamide]
18 | 488 nM | 0.634 nM | 758 nM | O=C(NCc1ccn2ccnc2c1)c1cc(Cl)c(-c2cnn(C[C@H]3CCOC3)c2)s1 [Example 579, 4-chloro-N-(imidazo[1,2-a]pyridin-7-ylmethyl)-5-{1-[(3R)-tetrahydrofuran-3-ylmethyl]-1H-pyrazol-4-yl}thiophene-2-carboxamide]
19 | 457 nM | 0.804 nM | 16.6 nM | CCC(C)(C)C(=O)N1CCC(c2ccc(C(=O)NCc3ccn4ccnc4c3)cc2)C1 (stereo not drawn) [Example 598, 4-[1-(2,2-dimethylbutanoyl)pyrrolidin-3-yl]-N-(imidazo[1,2-a]pyridin-7-ylmethyl)benzamide]
20 | 236 nM | 0.917 nM | 7.54 nM | COc1ccccc1C(=O)N1CCC(c2ccc(C(=O)NCc3ccn4ccnc4c3)cc2)C1 (stereo not drawn) [Example 587, N-(imidazo[1,2-a]pyridin-7-ylmethyl)-4-[1-(2-methoxybenzoyl)pyrrolidin-3-yl]benzamide]
21 | 232 nM | 0.862 nM | 33.5 nM | O=C(NCc1ccn2ccnc2c1)c1ccc(C2CCN(C(=O)c3cccc(Cl)c3)C2)cc1 (stereo not drawn) [Example 597, 4-[1-(3-chlorobenzoyl)pyrrolidin-3-yl]-N-(imidazo[1,2-a]pyridin-7-ylmethyl)benzamide]
22 | 151 nM | 0.843 nM | 10.1 nM | COc1cccc(C(=O)N2CCC(c3ccc(C(=O)NCc4ccn5ccnc5c4)cc3)C2)c1 (stereo not drawn) [Example 604, N-(imidazo[1,2-a]pyridin-7-ylmethyl)-4-[1-(3-methoxybenzoyl)pyrrolidin-3-yl]benzamide]
23 | 138 nM | 0.761 nM | 19.3 nM | O=C(NCc1ccn2ccnc2c1)c1ccc(C2CCN(C(=O)c3cccc(F)c3)C2)cc1 (stereo not drawn) [Example 591, 4-[1-(3-fluorobenzoyl)pyrrolidin-3-yl]-N-(imidazo[1,2-a]pyridin-7-ylmethyl)benzamide]
24 | 133 nM | 0.746 nM | 6.93 nM | Cc1ccccc1C(=O)N1CCC(c2ccc(C(=O)NCc3ccn4ccnc4c3)cc2)C1 (stereo not drawn) [Example 595, N-(imidazo[1,2-a]pyridin-7-ylmethyl)-4-[1-(2-methylbenzoyl)pyrrolidin-3-yl]benzamide]
25 | 38.8 nM | 0.603 nM | 3.75 nM | O=C(NCc1ccn2ccnc2c1)c1ccc(C2CCN(C(=O)c3ccc(F)cc3F)C2)cc1 (stereo not drawn) [Example 592, 4-[1-(2,4-difluorobenzoyl)pyrrolidin-3-yl]-N-(imidazo[1,2-a]pyridin-7-ylmethyl)benzamide]
26 | 22.7 nM | 0.682 nM | 1.11 nM | O=C(NCc1ccn2ccnc2c1)c1ccc(C2CCN(C(=O)c3ccccc3Cl)C2)cc1 (stereo not drawn) [Example 594, 4-[1-(2-chlorobenzoyl)pyrrolidin-3-yl]-N-(imidazo[1,2-a]pyridin-7-ylmethyl)benzamide]
27 | 18.9 nM | 0.361 nM | 2.15 nM | CC(C)(C#N)Cn1cc(-c2ccc(C(=O)NCc3ccn4ccnc4c3)s2)cn1 [Example 577, 5-[1-(2-cyano-2-methylpropyl)-1H-pyrazol-4-yl]-N-(imidazo[1,2-a]pyridin-7-ylmethyl)thiophene-2-carboxamide]
28 | 16.1 nM | 0.887 nM | 1.31 nM | O=C(NCc1ccn2ccnc2c1)c1ccc(C2CCN(C(=O)c3ccccc3F)C2)cc1 (stereo not drawn) [Example 589, 4-[1-(2-fluorobenzoyl)pyrrolidin-3-yl]-N-(imidazo[1,2-a]pyridin-7-ylmethyl)benzamide]
29 | 16 nM | 0.783 nM | 0.569 nM | CC1(Cn2cc(-c3ccc(C(=O)NCc4ccn5ccnc5c4)s3)cn2)CCOCC1 [Example 576, N-(imidazo[1,2-a]pyridin-7-ylmethyl)-5-{1-[(4-methyltetrahydro-2H-pyran-4-yl)methyl]-1H-pyrazol-4-yl}thiophene-2-carboxamide]
